Data taken from patent publication US11213030B2, “4-(3,4-dihydronaphth-1-yl or 2H-chromen-4-yl)-5-hydroxy-2H-pyradizin-3-ones as herbicides” (FMC Corporation, priority 2017, dated 2022).

What was measured:
Assay type in all cases: in vivo
[1] = system: barnyardgrass (Echinochloa crus-galli); experiment: Test A preemergence, barnyardgrass; conditions: 0 to 100 scale
Source text: (§1) Seeds of plant species selected from barnyardgrass (Echinochloa crus-galli), kochia (Kochia scoparia), ragweed (common ragweed, Ambrosia elatior), ryegrass, It. (Italian ryegrass, Lolium multiflorum), foxtail, green (green foxtail, Setaria viridis), and pigweed (Amaranthus retroflexus) were planted into a blend of loam soil and sand and treated preemergence with a directed soil spray using test chemicals formulated in a non-phytotoxic solvent mixture which included a surfactant. At the same time, plants selected from these weed species and also wheat (Triticum aestivum), corn (Zea mays), blackgrass (Alopecurus myosuroides), and galium (catchweed bedstraw, Galium aparine) were planted in pots containing the same blend of loam soil and sand and treated with postemergence applications of test chemicals formulated in the same manner. Plants ranged in height from 2 to 10 cm and were in the one- to two-leaf stage for the postemergence treatment. Treated plants and untreated controls were maintained in a greenhouse for approximately 10 d, after which time all treated plants were compared to untreated controls and visually evaluated for injury. Plant response ratings, summarized in Table A, are based on a 0 to 100 scale where 0 is no effect and 100 is complete control. A dash (-) response means no test result.

kochia (Kochia scoparia) [2] = experiment: Test A preemergence, kochia; conditions: 0 to 100 scale
Source text: as §1

[3] = system: ragweed (common ragweed, Ambrosia elatior); experiment: Test A preemergence, ragweed; conditions: 0 to 100 scale
Source text: as §1

[4] = system: ryegrass, It. (Italian ryegrass, Lolium multiflorum); experiment: Test A preemergence, Italian ryegrass; conditions: 0 to 100 scale
Source text: as §1

[5] = system: foxtail, green (green foxtail, Setaria viridis); experiment: Test A preemergence, green foxtail; conditions: 0 to 100 scale
Source text: as §1

[6] = system: pigweed (Amaranthus retroflexus); experiment: Test A preemergence, pigweed; conditions: 0 to 100 scale
Source text: as §1

[7] = system: barnyardgrass (Echinochloa crus-galli); experiment: Test A postemergence, barnyardgrass; conditions: 0 to 100 scale
Source text: as §1

kochia (Kochia scoparia) [8] = experiment: Test A postemergence, kochia; conditions: 0 to 100 scale
Source text: as §1

[9] = system: ragweed (common ragweed, Ambrosia elatior); experiment: Test A postemergence, ragweed; conditions: 0 to 100 scale
Source text: as §1

[10] = system: ryegrass, It. (Italian ryegrass, Lolium multiflorum); experiment: Test A postemergence, Italian ryegrass; conditions: 0 to 100 scale
Source text: as §1

[11] = system: foxtail, green (green foxtail, Setaria viridis); experiment: Test A postemergence, green foxtail; conditions: 0 to 100 scale
Source text: as §1

[12] = system: pigweed (Amaranthus retroflexus); experiment: Test A postemergence, pigweed; conditions: 0 to 100 scale
Source text: as §1

[13] = system: wheat (Triticum aestivum); experiment: Test A postemergence, wheat; conditions: 0 to 100 scale
Source text: as §1

corn (Zea mays) = experiment: Test A postemergence, corn; conditions: 0 to 100 scale
Source text: as §1

[14] = system: blackgrass (Alopecurus myosuroides); experiment: Test A postemergence, blackgrass; conditions: 0 to 100 scale
Source text: as §1

[15] = system: barnyardgrass (Echinochloa crus-galli); experiment: Test B flooded paddy test, barnyardgrass; conditions: Flood, 250 g ai/ha applied to paddy water, 2-leaf stage, 13 to 15 d; scale of 0 to 100 where 0 is no effect and 100 is complete control
Description: (§2) Plant species in the flooded paddy test selected from rice (Oryza sativa), sedge, umbrella (small-flower umbrella sedge, Cyperus difformis), ducksalad (Heteranthera limosa), and barnyardgrass (Echinochloa crus-galli) were grown to the 2-leaf stage for testing. At the time of treatment, test pots were flooded to 3 cm above the soil surface, treated by application of test compounds directly to the paddy water, and then maintained at that water depth for the duration of the test. Treated plants and controls were maintained in a greenhouse for 13 to 15 d, after which time all species were compared to controls and visually evaluated. Plant response ratings, summarized in Table B, are based on a scale of 0 to 100 where 0 is no effect and 100 is complete control. A dash (-) response means no test result.

[16] = system: ducksalad (Heteranthera limosa); experiment: Test B flooded paddy test, ducksalad; conditions: Flood, 250 g ai/ha applied to paddy water, 2-leaf stage, 13 to 15 d; scale of 0 to 100 where 0 is no effect and 100 is complete control
Description: as §2

rice (Oryza sativa) = experiment: Test B flooded paddy test, rice; conditions: Flood, 250 g ai/ha applied to paddy water, 2-leaf stage, 13 to 15 d; scale of 0 to 100 where 0 is no effect and 100 is complete control
Description: as §2

[17] = system: sedge, umbrella (small-flower umbrella sedge, Cyperus difformis); experiment: Test B flooded paddy test, umbrella sedge; conditions: Flood, 250 g ai/ha applied to paddy water, 2-leaf stage, 13 to 15 d; scale of 0 to 100 where 0 is no effect and 100 is complete control
Description: as §2

[18] = system: galium (catchweed bedstraw, Galium aparine); experiment: Test A postemergence, galium; conditions: 0 to 100 scale
Source text: as §1

CC1=C(c2c(O)c(C)nn(C)c2=O)c2ccccc2OC1 [Compound 3, 5-hydroxy-2,6-dimethyl-4-(3-methyl-2H-1-benzopyran-4-yl)-3(2H)-pyridazinone]
70: Plant response rating, Kochia (kochia (Kochia scoparia) [8]; 125 g ai/ha)
60: Plant response rating, Pigweed ([6]; 500 g ai/ha) | Plant response rating, Ragweed ([9]; 125 g ai/ha) | Plant response rating, Ryegrass, Italian ([10]; 500 g ai/ha)
90: Plant response rating, Kochia (kochia (Kochia scoparia) [8]; 500 g ai/ha) | Plant response rating, Ragweed ([9]; 500 g ai/ha)
80: Plant response rating, Pigweed ([12]; 125 g ai/ha)
30: Plant response rating, Kochia (kochia (Kochia scoparia) [2]; 500 g ai/ha)
10: Plant response rating, Kochia (kochia (Kochia scoparia) [2]; 125 g ai/ha) | Plant response rating, Ryegrass, It. ([4]; 500 g ai/ha) | Plant response rating, Pigweed ([6]; 125 g ai/ha) | Plant response rating, Barnyardgrass ([7]; 500 g ai/ha) | Plant response rating, Ryegrass, It. ([10]; 125 g ai/ha) | Plant response rating, Corn (corn (Zea mays); 500 g ai/ha) | Plant response rating, Blackgrass ([14]; 500 g ai/ha)
0: Plant response rating, Barnyardgrass ([1]; 125 g ai/ha) | Plant response rating, Barnyardgrass ([1]; 500 g ai/ha) | Plant response rating, Ragweed ([3]; 125 g ai/ha) | Plant response rating, Ryegrass, It. ([4]; 125 g ai/ha) | Plant response rating, Foxtail, Green ([5]; 125 g ai/ha) | Plant response rating, Foxtail, Green ([5]; 500 g ai/ha) | Plant response rating, Barnyardgrass ([7]; 125 g ai/ha) | Plant response rating, Foxtail, Green ([11]; 125 g ai/ha) | Plant response rating, Wheat ([13]; 125 g ai/ha) | Plant response rating, Wheat ([13]; 500 g ai/ha) | Plant response rating, Corn (corn (Zea mays); 125 g ai/ha) | Plant response rating, Blackgrass ([14]; 125 g ai/ha) | Plant response rating, Barnyardgrass [15] | Plant response rating, Ducksalad [16] | Plant response rating, Rice (rice (Oryza sativa))
100: Plant response rating, Pigweed ([12]; 500 g ai/ha)
20: Plant response rating, Foxtail, Green ([11]; 500 g ai/ha)
50: Plant response rating, Ragweed ([3]; 500 g ai/ha) | Plant response rating, Sedge, Umbrella [17]

CC1=C(c2c(O)c(C)nn(C)c2=O)c2cc(C)ccc2CC1 [Compound 4]
10: Plant response rating, Barnyardgrass ([7]; 31 g ai/ha) | Plant response rating, Barnyardgrass ([7]; 125 g ai/ha) | Plant response rating, Foxtail, Green ([11]; 31 g ai/ha)
20: Plant response rating, Kochia (kochia (Kochia scoparia) [8]; 125 g ai/ha) | Plant response rating, Ragweed ([9]; 125 g ai/ha) | Plant response rating, Ryegrass, It. ([10]; 125 g ai/ha) | Plant response rating, Foxtail, Green ([11]; 125 g ai/ha)
0: Plant response rating, Barnyardgrass ([1]; 31 g ai/ha) | Plant response rating, Barnyardgrass ([1]; 125 g ai/ha) | Plant response rating, Kochia (kochia (Kochia scoparia) [2]; 31 g ai/ha) | Plant response rating, Kochia (kochia (Kochia scoparia) [2]; 125 g ai/ha) | Plant response rating, Ragweed ([3]; 31 g ai/ha) | Plant response rating, Ragweed ([3]; 125 g ai/ha) | Plant response rating, Ryegrass, It. ([4]; 31 g ai/ha) | Plant response rating, Ryegrass, It. ([4]; 125 g ai/ha) | Plant response rating, Foxtail, Green ([5]; 31 g ai/ha) | Plant response rating, Foxtail, Green ([5]; 125 g ai/ha) | Plant response rating, Pigweed ([6]; 31 g ai/ha) | Plant response rating, Pigweed ([6]; 125 g ai/ha) | Plant response rating, Kochia (kochia (Kochia scoparia) [8]; 31 g ai/ha) | Plant response rating, Ragweed ([9]; 31 g ai/ha) | Plant response rating, Ryegrass, It. ([10]; 31 g ai/ha) | Plant response rating, Wheat ([13]; 31 g ai/ha) | Plant response rating, Wheat ([13]; 125 g ai/ha) | Plant response rating, Corn (corn (Zea mays); 31 g ai/ha) | Plant response rating, Corn (corn (Zea mays); 125 g ai/ha) | Plant response rating, Blackgrass ([14]; 31 g ai/ha) | Plant response rating, Blackgrass ([14]; 125 g ai/ha) | Plant response rating, Barnyardgrass [15] | Plant response rating, Ducksalad [16] | Plant response rating, Rice (rice (Oryza sativa)) | Plant response rating, Sedge, Umbrella [17]
40: Plant response rating, Galium ([18]; 31 g ai/ha)
50: Plant response rating, Pigweed ([12]; 31 g ai/ha)
70: Plant response rating, Pigweed ([12]; 125 g ai/ha) | Plant response rating, Galium ([18]; 125 g ai/ha)

CC(=O)Oc1c(C)nn(C)c(=O)c1C1=C(C)CCc2ccccc21 [Compound 5]
90: Plant response rating, Galium ([18]; 31 g ai/ha) | Plant response rating, Galium ([18]; 125 g ai/ha)
20: Plant response rating, Barnyardgrass ([1]; 31 g ai/ha) | Plant response rating, Ragweed ([3]; 31 g ai/ha) | Plant response rating, Pigweed ([6]; 31 g ai/ha) | Plant response rating, Barnyardgrass ([7]; 31 g ai/ha) | Plant response rating, Foxtail, Green ([11]; 31 g ai/ha) | Plant response rating, Corn (corn (Zea mays); 31 g ai/ha) | Plant response rating, Corn (corn (Zea mays); 125 g ai/ha)
70: Plant response rating, Ryegrass, It. ([4]; 125 g ai/ha) | Plant response rating, Kochia (kochia (Kochia scoparia) [8]; 31 g ai/ha) | Plant response rating, Ryegrass, It. ([10]; 31 g ai/ha) | Plant response rating, Pigweed ([12]; 31 g ai/ha)
10: Plant response rating, Kochia (kochia (Kochia scoparia) [2]; 125 g ai/ha)
100: Plant response rating, Pigweed ([6]; 125 g ai/ha) | Plant response rating, Pigweed ([12]; 125 g ai/ha)
0: Plant response rating, Barnyardgrass ([1]; 125 g ai/ha) | Plant response rating, Kochia (kochia (Kochia scoparia) [2]; 31 g ai/ha) | Plant response rating, Foxtail, Green ([5]; 31 g ai/ha) | Plant response rating, Foxtail, Green ([5]; 125 g ai/ha) | Plant response rating, Wheat ([13]; 31 g ai/ha) | Plant response rating, Wheat ([13]; 125 g ai/ha) | Plant response rating, Blackgrass ([14]; 31 g ai/ha) | Plant response rating, Barnyardgrass [15] | Plant response rating, Ducksalad [16] | Plant response rating, Rice (rice (Oryza sativa)) | Plant response rating, Sedge, Umbrella [17]
80: Plant response rating, Ragweed ([3]; 125 g ai/ha) | Plant response rating, Kochia (kochia (Kochia scoparia) [8]; 125 g ai/ha) | Plant response rating, Ragweed ([9]; 125 g ai/ha) | Plant response rating, Ryegrass, It. ([10]; 125 g ai/ha)
30: Plant response rating, Barnyardgrass ([7]; 125 g ai/ha) | Plant response rating, Ragweed ([9]; 31 g ai/ha) | Plant response rating, Blackgrass ([14]; 125 g ai/ha)
40: Plant response rating, Ryegrass, It. ([4]; 31 g ai/ha) | Plant response rating, Foxtail, Green ([11]; 125 g ai/ha)
